Experimental data published in patent US8211900B2, “DHFR enzyme inhibitors” (Chroma Therapeutics Ltd., priority 2006, dated 2012).

Assays:
recombinant human DHFR = biological target: T1, recombinant human DHFR (Homo sapiens, UniProt P00374); test: DHFR enzyme inhibition assay (Sigma kit CS0340); type: biochemical; conditions: NADPH 60 μM, dihydrofolic acid 50 μM
T1 construct: purchased Sigma CS0340
T1 sequence (P00374 1-187): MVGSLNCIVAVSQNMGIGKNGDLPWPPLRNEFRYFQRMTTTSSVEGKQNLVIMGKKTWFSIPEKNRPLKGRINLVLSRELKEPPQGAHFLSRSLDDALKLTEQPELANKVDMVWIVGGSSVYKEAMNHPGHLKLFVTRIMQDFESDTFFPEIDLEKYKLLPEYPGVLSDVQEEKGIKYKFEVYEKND
Experimental: The ability of compounds to inhibit DHFR activity was measured in an assay based on the ability of DHFR to catalyse the reversible NADPH-dependent reduction of dihydrofolic acid to tetrahydrofolic acid using a Sigma kit (Catalogue number CS0340). This uses proprietary assay buffer and recombinant human DHFR at 7.5×10^−4 Unit per reaction, NADPH at 60 μM and dihydrofolic acid at 50 μM. The reaction was followed by monitoring the decrease in absorbance at 340 nm, for a 2 minute period, at room temperature, and the enzyme activity was calculated as the rate of decrease in absorbance. Enzyme activity, in the presence of inhibitor, was expressed as a percentage of inhibitor-free activity and the inhibitor IC50 was determined from a sigmoidal dose response curve using XLfit software (% activity against log concentration of compound). Each sample was run in triplicate and each dose response curve was composed of 10 dilutions of the inhibitor.

U937 = test: Cell inhibition assay (WST-1 cell viability), U937; type: cell-based; conditions: Homo sapiens, U-937, U937 cells, 72-96 h, read-out: Inhibition cell proliferation U937
Experimental: (§1) Cancer cell lines (U937, HCT-116, THP-1 and HUT78) growing in log phase were harvested and seeded at 1000-2000 cells/well (100 μl final volume) into 96-well tissue culture plates. Following 24 h of growth cells were treated with compound.
(§2) Plates were then re-incubated for a further 72-96 h before a WST-1 cell viability assay was conducted according to the suppliers (Roche Applied Science) instructions. Data were expressed as a percentage inhibition of the control, measured in the absence of inhibitor, as follows:— % inhibition=100−((S^i/S^o)×100) where S^i is the signal in the presence of inhibitor and S^o is the signal in the presence of DMSO. Dose response curves were generated from 8 concentrations (top final concentration 10 μM, with 3-fold dilutions), using 6 replicates. IC50 values were determined by non-linear regression analysis, after fitting the results to the equation for sigmoidal dose response with variable slope (% activity against log concentration of compound), using Graphpad Prism software. IC50 values were allocated to one of the three ranges as follows: • Range A IC %)<100 nM • Range B: 100 nM<IC50<1000 nM • Range C: IC50>1000 nM

HCT-116 = test: Cell inhibition assay (WST-1 cell viability), HCT-116; type: cell-based; conditions: Homo sapiens, HCT-116 cells, 72-96 h, read-out: Inhibition cell proliferation HCT-116
Experimental: as §1, §2

HUT78 = test: Cell inhibition assay (WST-1 cell viability), HUT78; type: cell-based; conditions: Homo sapiens, HUT78 cells, 72-96 h, read-out: Inhibition cell proliferation HUT
Experimental: as §1, §2

THP-1 = test: Cell inhibition assay (WST-1 cell viability), THP-1; type: cell-based; conditions: Homo sapiens, THP-1 cells, 72-96 h, read-out: Inhibition cell proliferation THP-1
Experimental: as §1, §2

Structure (SMILES)	IC50 (recombinant human DHFR) [nM]	IC50 (U937) [nM]	IC50 (HCT-116) [nM]	IC50 (HUT78) [nM]	IC50 (THP-1) [nM]
COc1cc(NCc2ccc3nc(N)nc(N)c3c2C)cc(OC)c1OCC(=O)N[C@@H](CC(C)C)C(=O)O [Example 7, N-[(4-{[(2,4-diamino-5-methylquinazolin-6-yl)methyl]amino}-2,6-dimethoxyphenoxy)acetyl]-L-leucine]	< 100	–	–	–	–
COc1cc(NCc2ccc3nc(N)nc(N)c3c2C)cc(OC)c1OCCN[C@@H](CC(C)C)C(=O)OC1CCCC1 [Example 8, Cyclopentyl N-[2-(4-{[(2,4-diamino-5-methylquinazolin-6-yl)methyl]amino}-2,6-dimethoxyphenoxy)ethyl]-L-leucinate]	100 to 1000	< 100	100 to 1000	< 100	< 100
COc1cc(NCc2ccc3nc(N)nc(N)c3c2C)cc(OC)c1OCC(=O)N[C@@H](CC(C)C)C(=O)OC1CCCC1 [Example 5, Cyclopentyl N-[(4-{[(2,4-diamino-5-methylquinazolin-6-yl)methyl]amino}-2,6-dimethoxyphenoxy)acetyl]-L-leucinate]	> 1000	< 100	100 to 1000	< 100	< 100
Cc1c(CNc2ccc(C(=O)N[C@@H](CC(C)C)C(=O)O)cc2)cnc2nc(N)nc(N)c12 [Example 2, (S)-2-(4-((2,4-diamino-5-methylpyrido[2,3-a]pyrimidin-6-yl)methylamino)benzamido)-4-methylpentanoic Acid]	< 100	–	–	–	–
Cc1c(CNc2ccc(CN[C@@H](CC(C)C)C(=O)OC3CCCC3)cc2)cnc2nc(N)nc(N)c12 [Example 3, (S)-2-{4-[(2,4-Diamino-5-methyl-pyrido[2,3-d]pyrimidin-6-ylmethyl)-amino]-benzylamino}-4-methyl-pentanoic Acid Cyclopentyl Ester]	> 1000	< 100	> 1000	100 to 1000	100 to 1000
COc1cc(NCc2ccc3nc(N)nc(N)c3c2C)cc(OC)c1OCCN[C@@H](CC(C)C)C(=O)O [Example 9, N-[2-(4-{[(2,4-diamino-5-methylquinazolin-6-yl)methyl]amino}-2,6-dimethoxyphenoxy)ethyl]-L-leucine]	< 100	–	–	–	–
COc1cc(NCc2ccc3nc(N)nc(N)c3c2C)cc(OC)c1OCCN[C@@H](CC(C)C)C(=O)OC(C)(C)C [Example 10, tert-Butyl N-[2-(4-{[(2,4-diamino-5-methylquinazolin-6-yl)methyl]amino}-2,6-dimethoxyphenoxy)ethyl]-L-leucinate]	100 to 1000	100 to 1000	100 to 1000	100 to 1000	100 to 1000
COc1cc(NCc2ccc3nc(N)nc(N)c3c2C)cc(OC)c1OCC(=O)N[C@@H](CC(C)C)C(=O)OC(C)(C)C [Example 6, tert-Butyl N-[(4-{[(2,4-diamino-5-methylquinazolin-6-yl)methyl]amino}-2,6-dimethoxyphenoxy)acetyl]-L-leucinate]	> 1000	< 100	100 to 1000	100 to 1000	< 100
Cc1c(CNc2ccc(CN[C@@H](CC(C)C)C(=O)O)cc2)cnc2nc(N)nc(N)c12 [Example 4, (S)-2-{4-[(2,4-Diamino-5-methyl-pyrido[2,3-d]pyrimidin-6-ylmethyl)-amino]-benzylamino}-4-methyl-pentanoic Acid]	< 100	–	–	–	–
Cc1c(CNc2ccc(C(=O)N[C@@H](CC(C)C)C(=O)OC3CCCC3)cc2)cnc2nc(N)nc(N)c12 [Example 1, (S)-2-{4-[(2,4-Diamino-5-methyl-pyrido[2,3-d]pyrimidin-6-ylmethyl)-amino]-benzoylamino}-4-methyl-pentanoic Acid Cyclopentyl Ester]	> 1000	< 100	< 100	< 100	< 100
